Holding throughout (assay type): in vivo
The subject of assay [1] is weaned pigs. Kind of assay: Pig growth measurement (body weight, feed intake, feed/gain) in weaned pigs. The settings on record: mean±SD.
In assay [2] the test system is Serum IgG and IgM. The assay is described as follows: Serum IgG and IgM by turbidimetric inhibition immuno assay. The settings on record: pig serum; diet + 0.3 mg/kg Na2SeO3 or 0.14 mg/kg nanostructure; mean±SD.
Assay [3] concerns Serum inflammatory cytokine TNF-α, IL-2 and IL-6. The assay is described as follows: Serum inflammatory cytokines (TNF-α, IL-2, IL-6) by ELISA. The settings on record: pig serum; diet + 0.3 mg/kg Na2SeO3 or 0.14 mg/kg nanostructure; mean±SD.
In assay [4] the test system is pig antioxidative function. Kind of assay: Serum antioxidative function measurement (T-AOC, GPx, SOD, MDA) with kits. To be noted: diet + 0.3 mg/kg Na2SeO3 or 0.14 mg/kg nanostructure, mean±SD.
Setting [5] is: day 28 to 67, diet + 0.3 mg/kg Na2SeO3 or 0.14 mg/kg nanostructure.

Each structure is given as a SMILES string. Marks after values point to notes of the source that are not given here.

In the case of `O=[Se](O)O` [sodium selenite], the Final weight in assay [1] (67-day-old, basic diet + 0.3 mg/kg Na2SeO3 (group 1) or 0.14 mg/kg biogenic elemental selenium nanostructure (group 2)) is 24.17 ± 0.76^a kg. Besides, in assay [1] (setting [5]), the “Average daily feed intake” value stood at 654.17 ± 37.64 g, the Average daily gain is recorded as 411.54 ± 20.63^a g and the Feed/gain ratio is on record as 1.59 ± 0.01^b. Further, in assay [2], the IgG is on record as 2.66 ± 0.23^ab g/L and the IgM is 0.71 ± 0.07^a g/L. For the same compound, in assay [3], the IL-2 is reported as 108.19 ± 10.26^ab ng/L, the IL-6 is recorded as 571.10 ± 38.62^ab ng/L and the TNF-α was 41.86 ± 4.50^ab ng/L. In assay [4], the GPx is on record as 238.56 ± 13.07^a U/mL, the MDA was 3.31 ± 0.10^a nmol/mL, the SOD is recorded as 147.94 ± 5.89^a U/mL and the T-AOC is recorded as 2.51 ± 0.16^a U/mL.

For the origin of these results see patent US10087466B2 (priority 2016, dated 2018).
